According to patent US10662153B2 (The University of Toledo, priority 2016, dated 2020):

Experiments:
PPARα OE 3T3-L1 cells = experiment: Endogenous PPARα gene regulatory activity in 3T3-L1 cells (Real-time PCR); assay type: cell-based, mouse; conditions: 50 μM, 24 hours, dialyzed fatty acid-free media
Protocol: (§1) (FIG. 4D.) RNA was extracted and mRNA expression was measured by Real-time PCR.
(§2) To establish a 3T3-L1 or Hepa1c1c7 cell line that have PPARα stably overexpressed, mouse PPARα cDNA was ligated into the NotI/BamHI sites of the pQXCIP vector and transformed in DH5α cells (Invitrogen, Carlsbad, Calif.). […] The supernatants were harvested, and the cell debris was removed by centrifugation at 2000×g. The supernatant was used to infect 3T3-L1 or Hepa1c1c7 cells after addition of polybrene ([…], Sigma Chemical Co., St. Louis, Mo.) to establish cell lines with stable overexpression of a PPARα overexpressing (3T3-PPARα) or expressing empty vector (3T3-Vector). After 72 h the cells were selected with puromycin, and positive cells were confirmed by Western blotting and used for experiments.

[1] = system: hepa1c1c7 mouse hepatocytes overexpressing PPARα; experiment: PPARα controlled genes in hepa1c1c7 liver cells (Real-time PCR); assay type: cell-based; conditions: 50 μM, 24 hours, dialyzed fatty acid-free media
Protocol: as §1, §2

3T3-L1 cells = experiment: Adipogenesis assay (Nile Red lipid accumulation, Real-time PCR); assay type: cell-based, mouse
Protocol: Total RNA was read on a NanoDrop 2000® spectrophotometer (Thermo Fisher Scientific, Wilmington, Del.), and cDNA was synthesized using High Capacity cDNA Reverse Transcription Kit (Applied Biosystems). PCR amplification of the cDNA was performed by quantitative real-time PCR using TrueAmp® SYBR Green qPCR SuperMix (Advance Bioscience). The thermocycling protocol consisted of 10 min at 95° C., 40 cycles of 15 sec at 95° C., 30 sec at 60° C., and 20 sec at 72° C., and finished with a melting curve ranging from 60-95° C. to allow distinction of specific products. Normalization was performed in separate reactions with primers to GAPDH.
Adipogenic differentiation of 3T3-L1 cells was achieved by treatment with 1 μM Dex, 830 nM insulin, and 100 μM isobutylmethylxanthine in 10% FBS until Day 9. Upon differentiation, cells were stained with Nile Red to visualize lipid content, and densitometry was used as a direct measure. Total RNA extracted from Nile Red stained cells was used for real time PCR analysis.

[2] = assay type: physicochemical
Excerpt: (§3) This was to help increase the solubility of bilirubin in solution. […] Bilirubin was purchased commercially from Frontier Scientific.

PPARα [3] = molecular target: T1, PPARα (Mus musculus, UniProt P23204); experiment: Pull-down assay with ligand-coupled sepharose resins, PPARα OE 3T3-L1 cells; assay type: binding; set-up: expressed in transfected cells; conditions: ligand coupled to sepharose beads
T1 sequence (P23204 1-468): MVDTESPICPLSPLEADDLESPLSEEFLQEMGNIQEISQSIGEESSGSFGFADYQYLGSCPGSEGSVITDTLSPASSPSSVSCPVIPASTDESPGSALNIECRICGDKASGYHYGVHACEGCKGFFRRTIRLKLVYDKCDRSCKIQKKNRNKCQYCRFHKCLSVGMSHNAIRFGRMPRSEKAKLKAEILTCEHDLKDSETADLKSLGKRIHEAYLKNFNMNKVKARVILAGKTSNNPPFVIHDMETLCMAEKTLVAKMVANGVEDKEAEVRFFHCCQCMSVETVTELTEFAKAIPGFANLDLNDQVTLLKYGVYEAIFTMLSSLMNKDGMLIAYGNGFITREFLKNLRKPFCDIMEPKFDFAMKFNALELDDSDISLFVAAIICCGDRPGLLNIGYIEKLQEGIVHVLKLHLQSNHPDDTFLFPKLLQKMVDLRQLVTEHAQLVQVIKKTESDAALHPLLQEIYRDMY
Protocol: The ligand coupling was performed according to the GE Healthcare instructions (71-7097-00 AE, pg. 6) for EAH Sepharose™ 4B. The procedure in the online instructions was titled “A general ligand coupling procedure”. […] Resin coupling procedures were conducted in a DMF/H2O solvent system (1:1) with a final concentration of 0.1 M EDC*HCl. […] Upon completion, resins were washed according to the GE instructions (3 alternating washings with 0.5 M NaCl containing 0.1 M sodium acetate pH 4.5 and 0.5 M NaCl containing 0.1 M Tris pH 8) over a 10-15 μm fritted filter. As an additional step to the GE instructions, matrix-coupled bilirubin and biliverdin coupled preparations were further washed with 50% DMSO/H2O solutions (250 mL) to remove any unreacted ligand. The filtrate was nearly colorless after this step. […] The resins were suspended in 20% EtOH/H2O (15 mL) and stored at 4° C. for 16 h in capped sample vials. The ligand-coupled resin settles overnight and the supernatant was carefully decanted until minimal amounts of 20% EtOH/H2O covered the resin. […]
Whole cell extracts (WCE) were prepared by freezing the cell pellet overnight at −80° C. […] Immunoreactivity was visualized and quantified by infrared scanning in the Odyssey system (LI-COR Biosciences). […]

PPARα [4] = molecular target: T1, PPARα; experiment: Promoter reporter assay (PPRE-3tk-luc luciferase) in Cos7 cells; conditions: for level of PPARα activation compared among the ligands / PPARα activity at the minimal luciferase promoter: PPARα overexpressed, 50 μM each; for level of PPARα activation compared among the ligands: 24 hours (FIG. 3C); for PPARα activity at the minimal luciferase promoter: vs Veh (FIG. 3C)
Protocol: Cos7 cells were transiently transfected with a minimal PPARα responsive promoter luciferase construct (PPRE-3tk-luc) for 24 hours along with an empty vector and a vector containing PPARα cDNA (overexpression).
The mouse 3T3-L1 preadipocyte, Hepa1c1c7, and Cos7 green kidney monkey cells were routinely cultured and maintained in Dulbecco's Modified Eagles's Medium (DMEM) containing 10% bovine calf serum or FBS with 1% penicillin-streptomycin.
A PPARα minimal promoter PPRE-3tk-luc activity was measured by luciferase, and pRL-CMV Renilla reporter for normalization to transfection efficiency. Transient transfection was achieved using GeneFect® (Alkali Scientific, Inc.). Twenty-four-hour post-transfected cells were lysed and the luciferase assay was performed using the Promega® dual luciferase assay system (Promega, Madison, Wis.).

[5] = Stability on heating during resin preparation; assay type: physicochemical; conditions: 75° C. for 90 min in DMF/H2O; judged by decrease in PPARα binding of resin
Excerpt: as §3

[6] = system: wild-type mice on a high fat diet; conditions: mouse, in vivo
Protocol: (§4) With respect to animals, the procedures and protocols conform to the National Institutes of Health Guide for the Care and Use of Laboratory Animals, and were approved by the Institutional Animal Care and Use Committee of the University of Mississippi Medical Center. Tests were performed on 16 week old male PPARα knockout and wild-type mice on a C57 genetic background purchased from Jackson Labs (Bar Harbor, Me.). […] After this time, mice were switched to a 60% high fat diet (diet # D12492, Research Diets, Inc., New Brunswick, N.J.) for an additional 6 weeks. […] Control mice were not treated. Mice were euthanized on the last day of the test, at which time all organs were collected and weighed.
(§5) Following an 8 hour fast, a blood sample was obtained via orbital sinus under isoflorane anesthesia.
(§6) Plasma samples from individual mice were measured in duplicate and then averaged. The concentrations are expressed as mg/dL Plasma alanine aminotransferase (ALT) and aspartate aminotransferase (AST) levels were determined in 50 μL of plasma by colorimetric assay (Cobas, Rochce Diagnostics, Indianapolis, Ind.). Assays were performed according to the manufacturer's guidelines and samples were read on a Roche Cobas c501 analyzer. The concentrations were expressed as units/L.

[7] = system: PPARα KO mice on a high fat diet; conditions: mouse, in vivo
Protocol: as §4, §5, §6

[8] = system: PPARα KO mice on a high fat diet; experiment: High fat diet PPARα KO mice treated for seven days; conditions: bilirubin 30 mg/kg or fenofibrate 90 mg/kg i.p.
Protocol: as §4, §5, §6

[9] = 10 μM, differentiated 3T3-L1 adipocytes

SMILES	CD36 mRNA expression (PPARα OE 3T3-L1 cells)	CD36 mRNA [1]	CYP4A10 mRNA [1]	FGF21 mRNA response [1]	Pyruvate dehydrogenase kinase 4 (PDK4) expression [1]	angiopoietin-like 4 (ANGPTL4) expression [1]	heme oxygenase-1 (HO-1) mRNA response [1]	reduction of lipid accumulation (3T3-L1 cells; 10 μM over the 9 day protocol)	expression of FAS (3T3-L1 cells; [9])	reduction of lipid accumulation (3T3-L1 cells; 50 μM over the 9 day protocol)	solubility in organic solvents [2]	level of PPARα activation compared among the ligands (PPARα [4]; Cos7 cells)	PPARα activity at the minimal luciferase promoter (PPARα [4]; Cos7 cells, 24 hours)	other results
Cc1cccc(Nc2cc(Cl)nc(SCC(=O)O)n2)c1C [WY 14,643]	strongly induced expression	responded	responded	not	significantly (p<0.05) higher	significantly increased	not	56%	significantly (p<0.001) decreased expression of FAS	33%	readily soluble	higher than biliverdin or fenofibrate	significantly (p<0.0001) increased	direct binding to PPARα (pull-down) (PPARα [3]): can directly bind; induction of PPARα activity (PPARα [4]; Cos7 cells transfected with PPARα and RXR, 50 μM, 24 hrs (FIG. 12)): 2.1 fold
C=CC1=C(C)/C(=C/c2[nH]c(Cc3[nH]c(/C=C4\NC(=O)C(C)=C4C=C)c(C)c3CCC(=O)O)c(CCC(=O)O)c2C)NC1=O [bilirubin]	–	–	–	–	–	–	–	–	–	–	limited solubility	–	–	stability with heating [5]: less stable with heating; alanine aminotransferase (ALT) [6]: no change; aspartate aminotransferase (AST) [6]: no change; alanine aminotransferase (ALT) [7]: significantly (p<0.05) decreased; aspartate aminotransferase (AST) [7]: significantly (p<0.05) decreased; body weight [8]: no effect
C=CC1=C(C)/C(=C/C2=NC(=C\c3[nH]c(/C=C4\NC(=O)C(C)=C4C=C)c(C)c3CCC(=O)O)/C(CCC(=O)O)=C2C)NC1=O [biliverdin]	significantly (p<0.05) increased CD36 mRNA expression more than fenofibrate	not	not	increased	increased with all the ligands	significantly increased	increased	50%	significantly (p<0.001) decreased expression of FAS	91%	readily soluble	same level of PPARα activation	significantly (p<0.0001) increased	CPT1 expression (PPARα OE 3T3-L1 cells): increased CPT1 and FGF21 expression more than WY 14,643 treatment; FGF21 mRNA expression (PPARα OE 3T3-L1 cells): significantly (p<0.05) enhanced FGF21 mRNA higher than fenofibrate; reduction of lipid accumulation (3T3-L1 cells; 10 μM over the 9 day protocol, listed as Biliverdin): 49%; expression of CPT1 (3T3-L1 cells; [9]): significantly (p<0.001) increased expression of CPT1; water solubility [2]: greater water solubility than bilirubin; PPARα activity (PPRE-3tk-luc) (PPARα [4]; Cos7 cells, PPARα overexpression, dose dependence, 24 hours, vs 0 μM): significantly (p<0.05) increased; PPRE-3tk-luc promoter activation in the absence of PPARα (PPARα [4]; Cos7 cells, empty vector, dose dependence, 24 hours): did not activate
CC(C)OC(=O)C(C)(C)Oc1ccc(C(=O)c2ccc(Cl)cc2)cc1 [fenofibrate]	–	–	–	–	–	–	–	48%	–	51%	–	–	–	–
